# Data taken from patent US20090238766A1, “BIOLUMINESCENT CONSTRUCT” (ABBOTT LABORATORIES, priority 2008, published 2009).
# Test system: caspase-3/7
# Assay: In vivo bioluminescent imaging of VivoGlo Caspase-3/7 substrate and caspase-3/7 inactive substrate(s)
# Details: mice bearing tumors stably expressing luciferase, treated with apoptosis-inducing cytotoxic therapy (e.g. docetaxel); substrate 62.5 mg/mL intraperitoneally; detected 5-30 minutes post injection
# Description: In luciferase-expressing cells undergoing apoptosis, caspase-3/7 will cleave the DEVD peptide from the VivoGlo™ Caspase-3/7 substrate, allowing it to be a substrate for luciferase photon production. […] The photon emission will be detected with a photodetector device at timepoints from 5-30 minutes post injection and quantified.
substance,measurement,value
Z-DEVD-aminoluciferin [VivoGlo Caspase-3/7],bioluminescent signal (photon emission),significant bioluminescent signal
